Experimental findings from patent US10577378B2, “EIF4A-inhibiting compounds and methods related thereto” (eFFECTOR Therapeutics, Inc., priority 2015, dated 2020) are described below.

Some results are limits rather than exact numbers.

The test system of the assay is MDA-MB-231 human breast cancer cells. Description: Cell proliferation assay (CellTiter-Glo, 72 hours treatment). It is filed as cell-based. Particulars: Homo sapiens; MDA-MB-231 cells, 72 hours at 37° C., CellTiter-Glo; read-out: MDA-MB-231 cell proliferation assay (IC50). How it is done:
Human tumor cell lines were cultured in the appropriate media (DMEM and RPMI) supplemented with penicillin G (100 U/ml), streptomycin (100 μg/ml), 10% FBS in a humidified atmosphere of 5% CO2 maintained at 37° C. Exponentially growing cells were seeded at 2,500 cells/well in 96 well plates prior to drug treatment. The following day, cells were treated with either DMSO (vehicle control) or eIF4A inhibitors at the appropriate dose for 72 hours at 37° C. Following compound treatment, cell proliferation was assessed by CellTiter-Glo assay (Promega, Madison Wis.) according to the manufacturer's protocol. Dose-response curves were fitted by non-linear regression (sigmoidal dose response model) using KaleidaGraph (Synergy Software, Reading Pa.) and IC50 values were calculated.
To this end, IC50 values of less than 100 nM are labelled as “+++”, from 100 nM to 1000 nM are labelled as “++”, and greater than 1000 nM are labelled as “+” (NA means “not available”).
For orientation: In ATP-based viability assays light output follows the ATP content of the culture.

Consider `COc1ccc([C@@]23Oc4cc(OC)cnc4[C@]2(O)[C@H](O)[C@H](C(=O)N(C)C)[C@H]3c2ccccc2)cc1` (racemic) [1F, Rac-(5aR,6S,7R,8R,8aS)-8,8a-dihydroxy-3-methoxy-5a-(4-methoxyphenyl)-N,N-dimethyl-6-phenyl-5a,7,8,8a-tetrahydro-6H-cyclopenta[4,5]furo[3,2-b]pyridine-7-carboxamide], for which the IC50 was 0.1 to 1 µM.
For `CN(C)C(=O)[C@H]1[C@@H](O)[C@@]2(O)c3ccc(C#N)cc3S[C@@]2(c2ccc(C#N)cc2)[C@@H]1c1ccccc1` (racemic) [13F, Rac-(1R,2R,3S,3aR,8bS)-6-cyano-3a-(4-cyanophenyl)-1,8b-dihydroxy-N,N-dimethyl-3-phenyl-2,3,3a,8b-tetrahydro-1H-benzo[b]cyclopenta[d]thiophene-2-carboxamide] the value was > 1 µM; for `CN(C)C(=O)[C@H]1[C@@H](O)[C@@]2(O)c3cnc(C#N)cc3O[C@@]2(c2ccc(C#N)cc2)[C@@H]1c1ccccc1` (racemic) [14F, rac-(5aR,6S,7R,8R,8aS)-3-cyano-5a-(4-cyanophenyl)-8,8a-dihydroxy-N,N-dimethyl-6-phenyl-5a,7,8,8a-tetrahydro-6H-cyclopenta[4,5]furo[3,2-c]pyridine-7-carboxamide], 0.1 to 1 µM.
As for `COc1ccc2c(n1)O[C@@]1(c3ccc(C#N)cc3)[C@H](c3ccccc3)[C@@H](C(=O)N(C)C)[C@@H](O)[C@@]21O` (racemic) [15F, Rac-(4bS,5R,6R,7S,7aR)-7a-(4-cyanophenyl)-4b,5-dihydroxy-2-methoxy-N,N-dimethyl-7-phenyl-4b,6,7,7a-tetrahydro-5H-cyclopenta[4,5]furo[2,3-b]pyridine-6-carboxamide], the figure is > 1 µM; as for `COc1nccc2c1[C@]1(O)[C@H](O)[C@H](C(=O)N(C)C)[C@@H](c3ccccc3)[C@]1(c1ccc(C#N)cc1)O2` (racemic) [19F, rac-(5aR,6S,7R,8R,8aS)-5a-(4-cyanophenyl)-8,8a-dihydroxy-1-methoxy-N,N-dimethyl-6-phenyl-5a,7,8,8a-tetrahydro-6H-cyclopenta[4,5]furo[3,2-c]pyridine-7-carboxamide], 0.1 to 1 µM; as for `COC(=O)[C@H]1[C@@H](O)[C@@]2(O)c3nn(C)cc3O[C@@]2(c2ccc(C#N)cc2)[C@@H]1c1ccccc1` (racemic) [21F, Rac-methyl (4aR,5S,6R,7R,7aS)-4a-(4-cyanophenyl)-7,7a-dihydroxy-2-methyl-5-phenyl-2,4a,5,6,7,7a-hexahydrocyclopenta[4,5]furo[3,2-c]pyrazole-6-carboxylate], > 1 µM.
As for `CN(C)S(=O)(=O)[C@H]1[C@@H](O)[C@@]2(O)c3ncc(Cl)cc3O[C@@]2(c2ccc(C#N)cc2)[C@@H]1c1ccccc1` (racemic) [22F, Rac-(5aR,6S,7R,8S,8aS)-3-chloro-5a-(4-cyanophenyl)-8,8a-dihydroxy-N,N-dimethyl-6-phenyl-5a,7,8,8a-tetrahydro-6H-cyclopenta[4,5]furo[3,2-b]pyridine-7-sulfonamide], the figure is 0.1 to 1 µM.
With `COC(=O)[C@@]12C[C@@H]1[C@@]1(O)c3ncc(Cl)cc3O[C@@]1(c1ccc(Br)cc1)[C@@H]2c1ccccc1` (racemic) [24F, rac-methyl (5aR,6R,6aS,7aS,7bR)-5a-(4-bromophenyl)-3-chloro-7b-hydroxy-6-phenyl-5a,7,7a,7b-tetrahydrocyclopropa[4′,5′]cyclopenta[1′,2′:4,5]furo[3,2-b]pyridine-6a(6H)-carboxylate], the IC50 was > 1 µM.
For `COC(=O)[C@@]12C[C@@H]1[C@@]1(O)c3ncc(Cl)cc3O[C@@]1(c1ccc(C#N)cc1)[C@@H]2c1ccccc1` (racemic) [25F, Rac-methyl (5aR,6R,6aS,7aS,7bR)-3-chloro-5a-(4-cyanophenyl)-7b-hydroxy-6-phenyl-5a,7,7a,7b-tetrahydrocyclopropa[4′,5′]cyclopenta[1′,2′:4,5]furo[3,2-b]pyridine-6a(6H)-carboxylate] the value was > 1 µM; for `N#Cc1ccc([C@@]23Oc4cc(Cl)cnc4[C@]2(O)[C@H](O)[C@H](c2ncco2)[C@H]3c2ccccc2)cc1` (racemic) [26F, Rac-4-((5aR,6S,7R,8R,8aS)-3-chloro-8,8a-dihydroxy-7-(oxazol-2-yl)-6-phenyl-6,7,8,8a-tetrahydro-5aH-cyclopenta[4,5]furo[3,2-b]pyridin-5a-yl)benzonitrile], 0.1 to 1 µM; for `N#C[C@H]1[C@@H](O)[C@@]2(O)c3ncc(Cl)cc3O[C@@]2(c2ccc(Br)cc2)[C@@H]1c1ccccc1` (racemic) [27F, rac-(5aR,6S,7S,8R,8aS)-5a-(4-bromophenyl)-3-chloro-8,8a-dihydroxy-6-phenyl-5a,7,8,8a-tetrahydro-6H-cyclopenta[4,5]furo[3,2-b]pyridine-7-carbonitrile], 0.1 to 1 µM.
For `NC(=S)[C@H]1[C@@H](O)[C@@]2(O)c3ncc(Cl)cc3O[C@@]2(c2ccc(Br)cc2)[C@@H]1c1ccccc1` (racemic) [28F, Rac-(5aR,6S,7R,8R,8aS)-5a-(4-bromophenyl)-3-chloro-8,8a-dihydroxy-6-phenyl-5a,7,8,8a-tetrahydro-6H-cyclopenta[4,5]furo[3,2-b]pyridine-7-carbothioamide] the value was 0.1 to 1 µM; for `CN(C)C(=O)[C@H]1[C@@H](O)[C@@]2(O)c3nc(C(F)(F)F)c(O)cc3O[C@@]2(c2ccc(C#N)cc2)[C@@H]1c1ccccc1` (racemic) [29F, Rac-(5aR,6S,7R,8R,8aS)-5a-(4-cyanophenyl)-3,8,8a-trihydroxy-N,N-dimethyl-6-phenyl-2-(trifluoromethyl)-5a,7,8,8a-tetrahydro-6H-cyclopenta[4,5]furo[3,2-b]pyridine-7-carboxamide], > 1 µM; for `N#Cc1ccc([C@@]23Oc4cc(Cl)cnc4[C@]2(O)[C@H](O)[C@H](CN)[C@H]3c2ccccc2)cc1` (racemic) [30F, rac-4-((5aR,6S,7S,8R,8aS)-7-(aminomethyl)-3-chloro-8,8a-dihydroxy-6-phenyl-6,7,8,8a-tetrahydro-5aH-cyclopenta[4,5]furo[3,2-b]pyridin-5a-yl)benzonitrile], 0.1 to 1 µM.
As for `CN(C)C(=O)[C@@]12C[C@@H]1[C@@]1(O)c3ncc(Cl)cc3O[C@@]1(c1ccc(C#N)cc1)[C@@H]2c1ccccc1` (racemic) [31F, Rac-(5aR,6R,6aS,7aS,7bR)-3-chloro-5a-(4-cyanophenyl)-7b-hydroxy-N,N-dimethyl-6-phenyl-5a,7,7a,7b-tetrahydrocyclopropa[4′,5′]cyclopenta[1′,2′:4,5]furo[3,2-b]pyridine-6a(6H)-carboxamide], the IC50 was > 1 µM.
For `CN(C)C(=O)[C@H]1C(=O)[C@@]2(O)c3ncc(Cl)cc3O[C@@]2(c2ccc(C#N)cc2)[C@@H]1c1ccccc1` (racemic) [32F, Rac-(5aR,6S,7R,8aR)-3-chloro-5a-(4-cyanophenyl)-8a-hydroxy-N,N-dimethyl-8-oxo-6-phenyl-5a,7,8,8a-tetrahydro-6H-cyclopenta[4,5]furo[3,2-b]pyridine-7-carboxamide] the value was > 1 µM; for `CN(C)C(=O)[C@@H]1[C@@H](c2ccccc2)[C@]2(c3ccc(C#N)cc3)Oc3cc(Cl)cnc3[C@]2(O)[C@]1(C)O` (racemic) [33Fa, Rac-(5aR,6S,7R,8R,8aS)-3-chloro-5a-(4-cyanophenyl)-8,8a-dihydroxy-N,N,8-trimethyl-6-phenyl-5a,7,8,8a-tetrahydro-6H-cyclopenta[4,5]furo[3,2-b]pyridine-7-carboxamide], 0.1 to 1 µM; for `CN(C)C(=O)[C@@H]1[C@@H](c2ccccc2)[C@]2(c3ccc(C#N)cc3)Oc3cc(Cl)cnc3[C@]2(O)[C@@]1(C)O` (racemic) [33Fb, Rac-(5aR,6S,7R,8S,8aS)-3-chloro-5a-(4-cyanophenyl)-8,8a-dihydroxy-N,N,8-trimethyl-6-phenyl-5a,7,8,8a-tetrahydro-6H-cyclopenta[4,5]furo[3,2-b]pyridine-7-carboxamide], > 1 µM.
As for `C=C1C[C@@H](c2ccccc2)[C@]2(c3ccc(Br)cc3)Oc3cc(Cl)cnc3[C@]12O` (racemic) [34F, Rac-(5aR,6S,8aR)-5a-(4-bromophenyl)-3-chloro-8-methylene-6-phenyl-5a,6,7,8-tetrahydro-8aH-cyclopenta[4,5]furo[3,2-b]pyridin-8a-ol], the figure is > 1 µM; as for `COC1=C(C(=O)N(C)C)[C@@H](c2ccccc2)[C@]2(c3ccc(Br)cc3)Oc3cc(Cl)cnc3[C@]12O` (racemic) [35F, rac-(5aR,6R,8aS)-5a-(4-bromophenyl)-3-chloro-8a-hydroxy-8-methoxy-N,N-dimethyl-6-phenyl-5a,8a-dihydro-6H-cyclopenta[4,5]furo[3,2-b]pyridine-7-carboxamide], > 1 µM.
As for `CN(C)C(=O)[C@H]1[C@@H](O)[C@@]2(O)c3nn(C)c(Cl)c3O[C@@]2(c2ccc(C#N)cc2)[C@@H]1c1ccccc1` (racemic) [36F, Rac-(4aR,5S,6R,7R,7aS)-3-chloro-4a-(4-cyanophenyl)-7,7a-dihydroxy-N,N,2-trimethyl-5-phenyl-2,4a,5,6,7,7a-hexahydrocyclopenta[4,5]furo[3,2-c]pyrazole-6-carboxamide], the figure is > 1 µM.
As to `CN(C)C(=O)[C@H]1[C@@H](O)[C@@]2(O)c3nn(C)c(Cl)c3O[C@@]2(c2ccc(Br)cc2)[C@@H]1c1ccccc1` (racemic) [37F, Rac-(4aR,5S,6R,7R,7aS)-4a-(4-bromophenyl)-3-chloro-7,7a-dihydroxy-N,N,2-trimethyl-5-phenyl-2,4a,5,6,7,7a-hexahydrocyclopenta[4,5]furo[3,2-c]pyrazole-6-carboxamide], the IC50 was > 1 µM.
